Measured values published in ChEMBL document CHEMBL1127372, “The discovery and structure-activity relationships of 1,2,3,6-tetrahydro-4-phenyl-1-[(arylcyclohexenyl)alkyl]pyridines. Dopamine autoreceptor agonists and potential antipsychotic agents” (J Med Chem, 1994).
Calls of active or inactive are those of the source. No cut-off for these calls is given here.

Legend:
[1] = molecular target: T1, D(2) dopamine receptor (Rattus norvegicus, UniProt P61169); assay: In vitro inhibition of [3H]spiperone binding to Dopamine D2 receptor in rat striatum.; type: tissue-based
[2] = tested on: Mus musculus; assay: Tested for inhibition of mouse exploratory locomotory activity (LMA); value ranges from 9.2-16 mg/Kg; type: functional
[3] = tested on: Rattus norvegicus; assay: Effect on striatal DOPA synthesis at 10 mg/kg dose after GBL intraperitoneal dose of 750 mg/kg in rat corpus striatum; type: functional
[4] = tested on: Mus musculus; assay: Tested for inhibition of mouse exploratory locomotory activity (LMA); value ranges from […]-[…] mg/Kg; type: functional
[5] = tested on: Mus musculus; assay: Tested for the inhibition of locomotor activity in mice intraperitoneally; value ranges from 0.14-0.9 mg/Kg; type: functional; settings: ip
[6] = tested on: Rattus norvegicus; assay: Compound was tested for the decrease of DA neuron firing rate in rats at 0.25 mg/Kg ip dose; type: functional; parameters: scale not given: the % may be the effect or the level left
[7] = tested on: Rattus norvegicus; assay: Tested for reversal of DOPA accumulation in rat striatum after administration of compound at 10 mg/Kg dose for 60 min and GBL 750 mg/Kg ip; value ranges from 0.14-0.59; type: functional
[8] = species on record: Rattus norvegicus; assay: animal or person; settings: ip
[9] = tested on: Saimiri sciureus (squirrel monkey); assay: Tested for inhibition of conditioned avoidance in squirrel monkeys; stim indicates stimulation (increase in response rate) at 0.156 and 0.312 mgkg sc
[10] = tested on: Mus musculus; assay: Tested for inhibition of mouse exploratory locomotory activity (LMA); value ranges from 0.8-1.6 mg/Kg; type: functional
[11] = tested on: Mus musculus; assay: Tested for inhibition of mouse explanatory locomotory activity; value ranges from […]-[…] mg/Kg; type: functional
[12] = species on record: Rattus norvegicus; assay: Tested for inhibition of rat exploratory locomotory activity (LMA); type: functional
[13] = species on record: Mus musculus; assay: Tested for inhibition of mouse exploratory locomotory activity (LMA); type: functional
[14] = tested on: Rattus norvegicus; assay: Tested for inhibition of rat exploratory locomotory activity (LMA); value ranges from […]-[…] mg/Kg; value ranges from […]-[…] mg/Kg; type: functional
[15] = tested on: Rattus norvegicus; assay: Tested for inhibition of rat exploratory locomotory activity (LMA); value ranges from 12.5-24.7 mg/Kg; type: functional
[16] = species on record: Mus musculus; assay: animal or person; settings: ip
[17] = tested on: Rattus norvegicus; assay: Tested for the inhibition of locomotor activity in rats orally; value ranges from 0.21-0.3 mg/Kg; settings: po
[18] = Tested for inhibition of conditioned avoidance in squirrel monkeys; value ranges from 0.4-0.6 mg/Kg; settings: Saimiri
[19] = molecular target: D(1A) dopamine receptor (Rattus norvegicus, UniProt P18901); assay: Tested for binding affinity towards rat striatal dopamine receptor D1 using [3H]-SCH- 23390 as radioligand
[20] = molecular target: T2, D(4) dopamine receptor (Homo sapiens, UniProt P21917); assay: Tested for binding affinity towards human Dopamine receptor D4.2 using [3H]spiperone as radioligand
T2 sequence (P21917 whole entry): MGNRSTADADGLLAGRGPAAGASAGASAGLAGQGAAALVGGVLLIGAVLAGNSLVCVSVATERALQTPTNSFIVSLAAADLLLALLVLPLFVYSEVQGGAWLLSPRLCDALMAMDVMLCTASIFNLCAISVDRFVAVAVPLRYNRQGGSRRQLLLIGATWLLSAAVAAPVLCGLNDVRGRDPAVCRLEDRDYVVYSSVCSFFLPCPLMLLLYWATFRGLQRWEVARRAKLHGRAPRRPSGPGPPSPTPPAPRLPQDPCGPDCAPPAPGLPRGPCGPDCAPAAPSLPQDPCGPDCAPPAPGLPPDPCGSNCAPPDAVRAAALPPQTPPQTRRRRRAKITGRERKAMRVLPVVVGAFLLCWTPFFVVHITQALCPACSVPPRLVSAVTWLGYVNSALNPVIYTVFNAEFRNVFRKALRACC

[21] = molecular target: T1, D(2) dopamine receptor; assay: Tested for binding affinity towards rat striatal D2 receptor using [3H]NPA as radioligand
[22] = tested on: Mus musculus; assay: Tested for the inhibition of locomotor activity in mice intraperitoneally; value ranges from 0.9-1.8 mg/Kg; type: functional; settings: ip
[23] = tested on: Rattus norvegicus; assay: Compound was tested for the decrease of DA neuron firing rate in rats at 2.5 mg/Kg ip dose; type: functional
[24] = tested on: Rattus norvegicus; assay: Tested for inhibition of rat exploratory locomotory activity (LMA); value ranges from […]-[…] mg/Kg; type: functional
[25] = tested on: Rattus norvegicus; assay: Tested for the inhibition of locomotor activity in rats intraperitoneally; value ranges from […]-[…] mg/Kg; type: functional; settings: ip
[26] = tested on: Rattus norvegicus; assay: Tested for reversal of DOPA accumulation in rat mesolimbic after administration of compound at 10 mg/Kg dose for 60 min and GBL 750 mg/Kg ip; value ranges from 0.19-0.47; type: functional
[27] = tested on: Rattus norvegicus; assay: Tested for reversal of DOPA accumulation in rat striatum after administration of compound at 10 mg/Kg dose for 60 min and GBL 750 mg/Kg ip; value ranges from 2.05-4.46; type: functional
[28] = Tested for inhibition of conditioned avoidance in squirrel monkeys; value ranges from 0.4-0.7 mg/Kg; type: functional
[29] = molecular target: D(2) dopamine receptor (Homo sapiens, UniProt P14416)
Description: Tested for binding affinity towards human D2L receptor using [3H]spiperone as radioligand

[30] = molecular target: D(3) dopamine receptor (Homo sapiens, UniProt P35462)
Description: Tested for binding affinity towards human D3 receptor using [3H]spiperone as radioligand

[31] = molecular target: T1, D(2) dopamine receptor
Description: Tested for binding affinity towards rat striatal D2 receptor using [3H]spiperone as radioligand

[32] = tested on: Rattus norvegicus; assay: Tested for inhibition of rat exploratory locomotory activity (LMA); value ranges from 3.2-10.4 mg/Kg; type: functional

T1 sequence (P61169 whole entry): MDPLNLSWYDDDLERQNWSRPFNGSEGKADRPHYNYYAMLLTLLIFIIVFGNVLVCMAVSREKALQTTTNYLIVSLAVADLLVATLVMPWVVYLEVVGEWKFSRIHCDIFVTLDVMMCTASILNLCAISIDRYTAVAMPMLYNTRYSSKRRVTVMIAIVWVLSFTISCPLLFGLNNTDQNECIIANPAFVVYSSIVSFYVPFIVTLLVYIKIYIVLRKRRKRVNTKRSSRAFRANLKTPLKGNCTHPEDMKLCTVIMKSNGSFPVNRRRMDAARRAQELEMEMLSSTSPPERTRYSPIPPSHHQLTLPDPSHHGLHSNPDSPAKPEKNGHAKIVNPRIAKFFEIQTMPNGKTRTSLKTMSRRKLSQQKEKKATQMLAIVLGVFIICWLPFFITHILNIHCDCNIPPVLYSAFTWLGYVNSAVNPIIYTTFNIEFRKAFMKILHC
Chain of D(2) dopamine receptor (Homo sapiens, UniProt P14416) (P14416 whole entry): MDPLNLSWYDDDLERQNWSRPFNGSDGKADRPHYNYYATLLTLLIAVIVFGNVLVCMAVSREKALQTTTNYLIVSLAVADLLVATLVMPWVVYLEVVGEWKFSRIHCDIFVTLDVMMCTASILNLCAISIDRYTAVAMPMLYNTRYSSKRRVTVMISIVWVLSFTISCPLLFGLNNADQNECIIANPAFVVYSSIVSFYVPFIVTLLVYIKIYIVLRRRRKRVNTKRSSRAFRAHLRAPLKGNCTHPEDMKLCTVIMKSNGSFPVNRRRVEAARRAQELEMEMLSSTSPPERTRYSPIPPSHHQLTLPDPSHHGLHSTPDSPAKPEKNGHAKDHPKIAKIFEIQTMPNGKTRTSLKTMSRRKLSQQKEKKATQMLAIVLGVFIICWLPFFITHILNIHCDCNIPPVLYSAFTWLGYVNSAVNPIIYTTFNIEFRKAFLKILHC
Chain of D(3) dopamine receptor (P35462 whole entry): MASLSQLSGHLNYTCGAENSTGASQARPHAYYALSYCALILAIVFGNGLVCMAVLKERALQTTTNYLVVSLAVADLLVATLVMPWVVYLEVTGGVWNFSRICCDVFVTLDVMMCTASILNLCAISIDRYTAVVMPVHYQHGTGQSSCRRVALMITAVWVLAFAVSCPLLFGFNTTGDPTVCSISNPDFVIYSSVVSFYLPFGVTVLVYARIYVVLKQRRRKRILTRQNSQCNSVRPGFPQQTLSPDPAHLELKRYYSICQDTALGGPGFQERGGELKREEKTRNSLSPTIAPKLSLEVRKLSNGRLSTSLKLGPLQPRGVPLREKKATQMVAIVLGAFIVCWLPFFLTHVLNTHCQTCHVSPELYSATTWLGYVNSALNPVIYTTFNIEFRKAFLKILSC
Chain of D(1A) dopamine receptor (P18901 whole entry): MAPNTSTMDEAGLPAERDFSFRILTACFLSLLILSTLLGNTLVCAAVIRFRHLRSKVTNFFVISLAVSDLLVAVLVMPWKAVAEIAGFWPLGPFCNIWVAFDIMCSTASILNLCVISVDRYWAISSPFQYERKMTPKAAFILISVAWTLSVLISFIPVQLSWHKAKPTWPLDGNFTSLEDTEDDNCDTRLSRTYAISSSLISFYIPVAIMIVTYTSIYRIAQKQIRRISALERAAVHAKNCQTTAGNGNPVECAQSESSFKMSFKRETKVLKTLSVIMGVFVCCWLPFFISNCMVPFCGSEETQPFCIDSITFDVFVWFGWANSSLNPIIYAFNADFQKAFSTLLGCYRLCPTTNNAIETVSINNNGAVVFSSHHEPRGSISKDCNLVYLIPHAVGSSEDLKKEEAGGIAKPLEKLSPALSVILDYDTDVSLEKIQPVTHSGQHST

For `C1=C(c2ccccc2)CCC(CN2CC=C(c3ccccc3)CC2)C1` (configuration not stated), the IC50 [1] was 1000 nM, the ED50 [2] was 12.1 mg/kg and the Effect [3] was -32%.

`C1=C(c2ccccc2)CCN(CCC2CCC=C(c3ccccc3)C2)C1` (configuration not stated) gave an Effect [3] of -49%.

With `C1=C(c2ccccc2)CC(CN2CCN(c3ccccn3)CC2)CC1` (configuration not stated) the IC50 [1] was 141 nM, the ED50 [4] was 0.8 mg/kg and the Effect [3] was -61%.

Work on `C1=C(c2ccccc2)CC(CN2CC=C(c3cccs3)CC2)CC1` (configuration not stated) yielded an IC50 [1] of 170 nM.

`CN1CCc2cccc3c2[C@H]1Cc1ccc(O)c(O)c1-3` [APOMORPHINE] showed an ED50 [5] of 0.36 mg/kg, an Activity [6] of 100% and an ED50 [7] of 0.28 mg/kg. The ED50 [8] was 0.03 mg/kg and the ED50 [9] was “inactive”.

`C1=C(c2ccccc2)CCN(CC2CCC=C(c3ccccc3)C2)C1` (configuration not stated) showed an IC50 [1] of 112 nM, an ED50 [10] of 1.1 mg/kg and an Effect [3] of -86%.

For `COc1ccc(C2=CCC[C@@H](CN3CC=C(c4ccccc4)CC3)C2)cc1`, the IC50 [1] was 100 nM, the ED50 [11] was 5.6 mg/kg and the Effect [3] was -47%.

`Clc1ccc(C2=CCC[C@@H](CN3CC=C(c4ccccc4)CC3)C2)cc1` gave an ED50 [12] of 19.9 mg/kg.

`C1=C(c2ccccc2)CCN(C2CCC=C(c3ccccc3)C2)C1` (configuration not stated) gave an IC50 [1] of 9210 nM and an ED50 [13] of about 30 mg/kg.

In the case of `C1=C(c2ccccc2)CCN(C[C@H]2CCC=C(c3ccccc3)C2)C1`, the IC50 [1] is reported as 113 nM, the ED50 [14] is reported as 3.8 mg/kg and the Effect [3] is reported as 50%.

In the case of `Fc1ccc(C2=CCC[C@@H](CN3CC=C(c4ccccc4)CC3)C2)cc1`, the IC50 [1] is reported as 76 nM, the ED50 [15] is reported as 17.5 mg/kg and the Effect [3] is reported as -74%.

Molecule `C1=C(c2ccccc2)CCN(CC2CCCC=C2c2ccccc2)C1` (configuration not stated) has an IC50 [1] of 3940 nM and an ED50 [13] of over 30 mg/kg.

In the case of `O=C(CCCN1CCC(O)(c2ccc(Cl)cc2)CC1)c1ccc(F)cc1` [HALOPERIDOL], the ED50 [16] is reported as 0.3 mg/kg, the ED50 [17] is reported as 0.25 mg/kg and the ED50 [18] is reported as 0.5 mg/kg.

For `C1=C(c2ccccc2)CCN(C[C@@H]2CCC=C(c3ccccc3)C2)C1` [CI-1007], the Ki [19] was over 10000 nM, the Ki [20] was 90.9 nM and the IC50 [1] was 53 nM. The Ki [21] was 3.3 nM, the ED50 [22] was 1.3 mg/kg and the Activity [23] was 99. The ED50 [24] was 2.9 mg/kg, the ED50 [25] was 2.9 mg/kg and the Effect [3] was -66%. For the same molecule, the Effect [26] was 0.3%, the Effect [27] was 3% and the ED50 [28] was 0.6 mg/kg. The Ki [29] was 25.5 nM, the Ki [30] was 16.6 nM and the Ki [31] was 53 nM.

`C1=C(c2ccccc2)CCCC1CN1CC=C(c2ccccc2)CC1` (configuration not stated) showed an IC50 [1] of 420 nM and an Effect [3] of -34%.

For `Cc1ccc(C2=CCC[C@@H](CN3CC=C(c4ccccc4)CC3)C2)cc1`, the IC50 [1] was 328 nM, the ED50 [32] was 5.8 mg/kg and the Effect [3] was -42%.

With `FC(F)(F)c1ccc(C2=CCC[C@@H](CN3CC=C(c4ccccc4)CC3)C2)cc1` the IC50 [1] was 2550 nM.

`C1=C(c2ccccc2)CC(CN2CCN(c3ccccc3)CC2)CC1` (configuration not stated) gave an IC50 [1] of 424 nM and an Effect [3] of -7.5%.

In the case of `C1=C(c2ccccc2)CC(CN2CCN(c3ncccn3)CC2)CC1` (configuration not stated), the IC50 [1] is reported as 354 nM.
